In patent US20190209539A1, “THIOHYDANTOIN ANDROGEN RECEPTOR ANTAGONISTS FOR THE TREATMENT OF CANCER” (Janssen Pharmaceutica NV, priority 2016, published 2019):
Substitutions are numbered along the chain they refer to.

Assays:
[1] = target: T1, wild-type Androgen Receptor (AR-wt) (Homo sapiens, UniProt P10275); test: LNCaP-AR-wt AG: ARE luciferase reporter assay, agonist mode; format: cell-based; conditions: maximum % stimulation (agonist response), % of 1 μM R-1881 max
T1 construct: expressed in transfected cells; host or cells: LNCaP AR (cs) cells with ARE firefly luciferase lentiviral construct
T1 sequence (P10275 1-920): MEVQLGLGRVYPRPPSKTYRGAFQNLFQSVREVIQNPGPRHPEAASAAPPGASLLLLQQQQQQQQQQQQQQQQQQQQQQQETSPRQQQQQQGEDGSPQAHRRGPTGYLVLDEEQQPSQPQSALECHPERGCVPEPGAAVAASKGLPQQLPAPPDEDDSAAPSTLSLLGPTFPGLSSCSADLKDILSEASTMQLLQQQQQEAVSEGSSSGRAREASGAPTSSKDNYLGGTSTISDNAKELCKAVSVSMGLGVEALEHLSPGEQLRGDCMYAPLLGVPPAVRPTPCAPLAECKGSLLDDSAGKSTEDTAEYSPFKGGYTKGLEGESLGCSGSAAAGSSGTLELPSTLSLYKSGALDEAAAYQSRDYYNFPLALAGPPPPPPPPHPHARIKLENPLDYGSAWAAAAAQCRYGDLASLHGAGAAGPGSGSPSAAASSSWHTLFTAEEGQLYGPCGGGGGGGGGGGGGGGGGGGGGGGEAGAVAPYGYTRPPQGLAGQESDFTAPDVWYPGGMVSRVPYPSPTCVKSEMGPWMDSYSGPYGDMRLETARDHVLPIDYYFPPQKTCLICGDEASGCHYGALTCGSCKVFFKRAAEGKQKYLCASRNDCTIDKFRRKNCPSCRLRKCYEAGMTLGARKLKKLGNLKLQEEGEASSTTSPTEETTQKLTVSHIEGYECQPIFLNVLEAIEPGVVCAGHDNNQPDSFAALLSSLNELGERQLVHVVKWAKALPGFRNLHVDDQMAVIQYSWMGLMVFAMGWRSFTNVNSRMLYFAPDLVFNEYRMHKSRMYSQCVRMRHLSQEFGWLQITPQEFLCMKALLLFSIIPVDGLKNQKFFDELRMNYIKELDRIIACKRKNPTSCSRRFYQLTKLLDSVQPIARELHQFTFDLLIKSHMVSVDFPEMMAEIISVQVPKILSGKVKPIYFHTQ
Protocol: (§1) A stable pooled-population cell line was generated using puromycin (Life Technologies) selection at 1:10,000 v/v. The protocol below was used for both cell lines and for testing of the compounds of Formula (I) of the present invention.
(§2) LNCaP cells were grown to about 80% confluence, media removed and cells rinsed in Hank's balanced salt solution prior to separation from the plate with 0.05% Trypsin EDTA. Cells were lifted and trypsin negated in complete CSS (charcoal stripped serum) culture media. […] Agonist challenge was at 400 pM for WT assay and 600 pM for F876L assay. Plates containing cells and compounds herein were incubated for a further 20-24 hours at 37° C., 5% CO2 before addition of 40 μL/well of Steady-Glo Luciferase Assay System Reagent (Promega# E2520). After 1 h, plates were read for luminescence on a BMG Pherastar.
(§3) EC/IC50 calculations were achieved utilizing calculated RLU data and data fitting macros. Data were fit using least-squares methods to the following formula: […]
(§4) As used herein: pIC50 is defined as—Log10(IC50 expressed in [Molar]). pEC50 is defined as—Log10(EC50 expressed in [Molar]). […] LNCaP-AR-wt ANT refers to the reporter assay using LNCaP cells stably transfected with the Androgen Response Element Firefly Luciferase lentiviral construct and wild-type Androgen Receptor (AR-wt) in Antagonist mode. LNCaP-AR-wt AG refers to the reporter assay using LNCaP cells stably transfected with the Androgen Response Element Firefly Luciferase lentiviral construct and wild-type Androgen Receptor (AR-wt) in Agonist mode. LNCaP-AR-F876L ANT refers to the reporter assay using LNCaP cells stably transfected with the Androgen Response Element Firefly Luciferase lentiviral construct and F876L mutant Androgen Receptor (AR-F876L) in Antagonist mode. LNCaP-AR-F876L AG refers to the reporter assay using LNCaP cells stably transfected with the Androgen Response Element Firefly Luciferase lentiviral construct and F876L mutant Androgen Receptor (AR-F876L) in Agonist mode.

[2] = target: T2, F876L mutant Androgen Receptor (AR-F876L) (Homo sapiens, UniProt P10275, F877L); test: LNCaP-AR-F876L AG: ARE luciferase reporter assay, agonist mode; format: cell-based; conditions: maximum % stimulation (agonist response), % of 1 μM R-1881 max
T2 construct: expressed in transfected cells; host or cells: LNCaP F876L cells with ARE firefly luciferase lentiviral construct
T2 sequence (P10275 1-920 F877L): T1 sequence (P10275 1-920) with F877L
Protocol: as §1, §2, §3, §4

| Compound | LNCaP-AR-wt AG MAX % Stim [1] [%] | LNCaP-AR-F876L AG MAX % Stim [2] [%] |
| --- | --- | --- |
| N#Cc1ncc(N2C(=O)C3(CCC3)N(c3cccc(CO)c3)C2=S)cc1C(F)(F)F [Cpd 81, 5-[8-[3-(hydroxymethyl)phenyl]-5-oxo-7-thioxo-6,8-diazaspiro[3.4]octan-6-yl]-3-(trifluoromethyl)pyridine-2-carbonitrile] | 0.7 | 1.2 |
| N#Cc1ncc(N2C(=O)C3(CCC3)N(c3cccc4ccccc34)C2=S)cc1C(F)(F)F [Cpd 34, 5-[8-(1-naphthyl)-5-oxo-7-thioxo-6,8-diazaspiro[3.4]octan-6-yl]-3-(trifluoromethyl)pyridine-2-carbonitrile] | −0.1 | 0.2 |
| Cc1cc(N2C(=O)C3(CCC3)N(c3ccc(C4CCOCC4)cc3)C2=S)cnc1C#N [Cpd 101, 3-methyl-5-[5-oxo-8-(4-tetrahydropyran-4-ylphenyl)-7-thioxo-6,8-diazaspiro[3.4]octan-6-yl]pyridine-2-carbonitrile] | 1.1 | 1.7 |
| C#CCNC(=O)c1ccc(N2C(=S)N(c3cnc(C#N)c(C(F)(F)F)c3)C(=O)C23CCC3)cc1F [Cpd 111, 4-[6-[6-cyano-5-(trifluoromethyl)-3-pyridyl]-5-oxo-7-thioxo-6,8-diazaspiro[3.4]octan-8-yl]-2-fluoro-N-prop-2-ynyl-benzamide] | 0.5 | 2.7 |
| N#Cc1ncc(N2C(=O)C3(CCC3)N(c3ccc(C(=O)NCc4ccccc4Cl)c(F)c3)C2=S)cc1C(F)(F)F [Cpd 31, N-[(2-chlorophenyl)methyl]-4-[6-[6-cyano-5-(trifluoromethyl)-3-pyridyl]-5-oxo-7-thioxo-6,8-diazaspiro[3.4]octan-8-yl]-2-fluoro-benzamide] | 0.2 | 0.3 |
| CCCNC(=O)c1ccc(N2C(=S)N(c3cnc(C#N)c(C(F)(F)F)c3)C(=O)C23CCC3)cc1F [Cpd 68, 4-[6-[6-cyano-5-(trifluoromethyl)-3-pyridyl]-5-oxo-7-thioxo-6,8-diazaspiro[3.4]octan-8-yl]-2-fluoro-N-propyl-benzamide] | 0.2 | 0.9 |
| Cc1cncc(-c2ccc(N3C(=S)N(c4cnc(C#N)c(C)c4)C(=O)C34CCC4)cc2)c1 [Cpd 114, 3-methyl-5-[8-[4-(5-methyl-3-pyridyl)phenyl]-5-oxo-7-thioxo-6,8-diazaspiro[3.4]octan-6-yl]pyridine-2-carbonitrile] | 0.7 | 3.3 |
| N#Cc1ncc(N2C(=O)C3(CCC3)N(c3ccc(OC4CCN(CCO)CC4)cc3)C2=S)cc1C(F)(F)F [Cpd 51, 5-[8-[4-[[1-(2-hydroxyethyl)-4-piperidyl]oxy]phenyl]-5-oxo-7-thioxo-6,8-diazaspiro[3.4]octan-6-yl]-3-(trifluoromethyl)pyridine-2-carbonitrile] | 0.8 | 0.2 |
| N#Cc1ncc(N2C(=O)C3(CCC3)N(c3ccc(C(=O)NCc4cccnc4)c(F)c3)C2=S)cc1C(F)(F)F [Cpd 67, 4-[6-[6-cyano-5-(trifluoromethyl)-3-pyridyl]-5-oxo-7-thioxo-6,8-diazaspiro[3.4]octan-8-yl]-2-fluoro-N-(3-pyridylmethyl)benzamide] | 1.5 | 0.8 |
| COCCNC(=O)c1ccc(N2C(=S)N(c3cnc(C#N)c(C(F)(F)F)c3)C(=O)C23CCC3)cc1F [Cpd 46, 4-[6-[6-cyano-5-(trifluoromethyl)-3-pyridyl]-5-oxo-7-thioxo-6,8-diazaspiro[3.4]octan-8-yl]-2-fluoro-N-(2-methoxyethyl)benzamide] | −0.1 | 0.2 |
| Cc1cc(N2C(=O)C3(CCC3)N(c3ccc(OC4CCOCC4)cc3)C2=S)cnc1C#N [Cpd 87, 3-methyl-5-[5-oxo-8-(4-tetrahydropyran-4-yloxyphenyl)-7-thioxo-6,8-diazaspiro[3.4]octan-6-yl]pyridine-2-carbonitrile] | 1.1 | 0.9 |
| N#Cc1ncc(N2C(=O)C3(CCC3)N(c3ccc(C(=O)NCc4ccccn4)c(F)c3)C2=S)cc1C(F)(F)F [Cpd 44, 4-[6-[6-cyano-5-(trifluoromethyl)-3-pyridyl]-5-oxo-7-thioxo-6,8-diazaspiro[3.4]octan-8-yl]-2-fluoro-N-(2-pyridylmethyl)benzamide] | −0.2 | 0.0 |
| Cc1cc(N2C(=O)C3(CCC3)N(c3ccc(Oc4ccncn4)cc3)C2=S)cnc1C#N [Cpd 62, 3-methyl-5-[5-oxo-8-(4-pyrimidin-4-yloxyphenyl)-7-thioxo-6,8-diazaspiro[3.4]octan-6-yl]pyridine-2-carbonitrile] | 0.8 | 0.4 |
| N#Cc1ncc(N2C(=O)C3(CCC3)N(c3ccc4ccccc4c3)C2=S)cc1C(F)(F)F [Cpd 18, 5-[8-(2-naphthyl)-5-oxo-7-thioxo-6,8-diazaspiro[3.4]octan-6-yl]-3-(trifluoromethyl)pyridine-2-carbonitrile] | −0.2 | 0.0 |
| N#Cc1ncc(N2C(=O)C3(CCC3)N(c3ccc(OCCCN4CCCC4)c(F)c3)C2=S)cc1C(F)(F)F [Cpd 55, 5-[8-[3-fluoro-4-(3-pyrrolidin-1-ylpropoxy)phenyl]-5-oxo-7-thioxo-6,8-diazaspiro[3.4]octan-6-yl]-3-(trifluoromethyl)pyridine-2-carbonitrile] | 0.7 | 0.6 |
| Cc1ccc(NC(=O)c2ccc(N3C(=S)N(c4cnc(C#N)c(C)c4)C(=O)C34CCC4)cc2F)cn1 [Cpd 75, 4-[6-(6-cyano-5-methyl-3-pyridyl)-5-oxo-7-thioxo-6,8-diazaspiro[3.4]octan-8-yl]-2-fluoro-N-(6-methyl-3-pyridyl)benzamide] | 0.8 | 0.8 |
